Experimental data reported in ChEMBL document CHEMBL3507680, “University of Dundee, Gates Library screen for HepG2 cell viability”.

test: Human HepG2 cell viability assay in 384 well format; assay type: toxicity, cell-based; design: dose 125 nL, time 70.5 hour; cytotoxicity at 70.5 h: concentration not given beside the values; conditions: HepG2 cells, read-out: Inhibition

Row | Compound | cytotoxicity at 70.5 h [%]
1 | COCCN1C(=O)CO[C@H]2CN(Cc3ccccc3Cl)C[C@@H]21 | -9.25
2 | Cc1ncc(CNC(=O)CCc2cccs2)c(C2CCCN2C)n1 (stereo not given) | -4.28
3 | COc1cccc(CN2CC[C@H](NC(C)=O)[C@@H](O)CC2)c1F | -1.47
4 | CC(=O)N1CCN([C@@H]2CC[C@@H](NC(=O)c3ccc(C)nc3)[C@H]2O)CC1 | -5.95
5 | CN1CCC(c2cccc(Cc3ccc(C(F)(F)F)cc3)n2)CC1 | -0.939
6 | Cc1noc(C)c1-c1cccc(CC2CCN(C(=O)c3cscn3)C2)n1 (stereo not given) | -5.81
7 | CC(=O)Nc1nc(C2CCN(C(=O)C3CCC3)CC2)cs1 | -5.93
8 | CS(=O)(=O)N1CCCC(c2cncc(Nc3ccccn3)n2)C1 (stereo not given) | -7.64
9 | NC(=O)C1(c2cnccn2)CCCN1Cc1ccc(Cl)cc1 (stereo not given) | -9.51
10 | c1cnc(Nc2cncc(C3CCCN(c4ncccn4)C3)n2)nc1 (stereo not given) | -7.66
11 | CS(=O)(=O)N1CCCC(Cc2cncc(-c3ccccc3C(=O)O)n2)C1 (stereo not given) | -12.4
12 | CN(Cc1ccc(F)cc1)CC1(O)CCN(C(=O)c2ccccn2)C1 (stereo not given) | -12.9
13 | CN(Cc1ccc(F)cc1)CC1(O)CCN(C(=O)c2cccs2)C1 (stereo not given) | 2.73
14 | O=C(c1ccncc1)N1CCCC1c1nc(O)cc(-c2ccccn2)n1 (stereo not given) | -2.92
15 | COc1ncc(CN2CCOC(C)(C(=O)N3CCOCC3)C2)cn1 (stereo not given) | -4.39
16 | CN(C)C(=O)CN1CCCC1c1cccc(Cc2ccccc2F)n1 (stereo not given) | 0.856
17 | NC(=O)C1(c2cnccn2)CCCN1Cc1ccccn1 (stereo not given) | -3.76
18 | NC(=O)C1(c2cnccn2)CCCN1Cc1cccc(Cl)c1 (stereo not given) | -2.75
19 | NCC(=O)N1CCC(c2cncc(Oc3cccnc3)n2)CC1 | 1.14
20 | Cc1ccc(CN2CCCC2(C(N)=O)c2cnccn2)c(C)c1 (stereo not given) | -0.964
21 | c1cnc(Nc2cncc(C3CCCN(c4cnccn4)C3)n2)nc1 (stereo not given) | -5.35
22 | CN(C)Cc1ccnc(C2CN(CCc3ccccc3)CCO2)n1 (stereo not given) | 17.9
23 | CNC(=O)C1(c2cnccn2)CCCN1C(=O)c1c(F)cccc1F (stereo not given) | 18.1

Row | Compound | cytotoxicity at 70.5 h [%]
24 | Cc1ccccc1-c1cncc(C2CCN(Cc3ccccn3)CC2)n1 | -3.39
25 | Cc1ccc(CNc2nc(O)cc(C3CC(=O)N(C)C3)n2)cc1 (stereo not given) | -4.28
26 | CC(=O)N1CCC(c2nc(C)cc(-c3ccccc3C(=O)O)n2)CC1 | -3.01
27 | Cc1ccc(CC(=O)N2CCCC(c3n[nH]c4nccnc34)C2)cc1 (stereo not given) | -1.21
28 | Cc1cccc(CC(=O)N2CCCC(c3n[nH]c4nccnc34)C2)c1 (stereo not given) | 14.6
29 | CNC(=O)c1ccc(C2CN(C(=O)c3c[nH]nc3C)CCO2)nc1 (stereo not given) | -1.61
30 | CNc1cccc(C2CCCN(C(=O)c3coc(C)n3)C2)n1 (stereo not given) | -0.702
31 | Nc1nc2nc(C3CCCN(C(=O)c4cncs4)C3)ccc2s1 (stereo not given) | 0.556
32 | CC1CCN(S(=O)(=O)N2CCC(Oc3cnccn3)CC2)CC1 | -5.91
33 | Cc1ccnc(C2CCN(C(=O)c3cnn(C)c3)C2)n1 (stereo not given) | 12.7
34 | CCCN(C(=O)c1cnccn1)c1nc2c(s1)CCc1c-2cnn1C | 7.37
35 | CN(C)Cc1ccnc(C2CCCN2Cc2cc3ccccc3s2)n1 (stereo not given) | -1.24
36 | O=C(c1cccs1)N1CCc2c(nc(N3CCCCC3)[nH]c2=O)C1 | -0.672
37 | O=C(c1cc[nH]n1)N1CCc2c(nc(N3CCCCC3)[nH]c2=O)C1 | -4.43
38 | Cc1nc(O)c2nnn(C[C@H]3CCCN3C(=O)c3cccs3)c2n1 | -7.34
39 | CN1CCCC(c2cccc(CCC(=O)NCc3ccccn3)n2)C1 (stereo not given) | -7.64
40 | O=C(c1cscn1)N1CCC(Cc2cnc3[nH]ccc3c2)C1 (stereo not given) | -1.17
41 | Cc1nc(O)cc(C2CCCN2CCO)n1 (stereo not given) | -5.13
42 | Cc1cc(C)nc(Nc2cccc(C3CCCN(C(C)C)C3)n2)n1 (stereo not given) | -6.28
43 | c1ccc(OCCN2CCC(c3nnc(-c4cccnc4)o3)CC2)cc1 | -2.58
44 | CCc1c(C)nc2cc(C3CCN(Cc4ccc(F)cc4)C3)nn2c1O (stereo not given) | -5.42
45 | COC(=O)C1CCCN1C(=O)c1ccc(Cl)cc1F (stereo not given) | -2.57
46 | NC(=O)C1CCN(S(=O)(=O)c2cnn(-c3ccccc3)c2)CC1 | -4.05

Row | Compound | cytotoxicity at 70.5 h [%]
47 | COCCn1cc(C(=O)NCCS(N)(=O)=O)c2ccccc21 | -7.1
48 | CCCn1cc(C(=O)NCCCC(N)=O)c2ccccc21 | -2.51
49 | O=C(NC1(C(=O)O)CCCCC1)C1Cc2ccccc2O1 (stereo not given) | -3.59
50 | Cc1noc(C(C)N2CCN(CCn3ccccc3=O)CC2)n1 (stereo not given) | -1.66
51 | Cc1noc(CNC(=O)NCCc2ccc(Cl)cc2)n1 | -3.31
52 | Cc1noc(CNC(=O)NCCOc2ccc(Cl)cc2)n1 | -3.2
53 | CC(C)CN(CC(C)C)Cn1ncc2cn(-c3ccccc3)nc2c1=O | -2.25
54 | COc1c(C2CCCN2c2ncnc3c2CCC3)c(C)nn1C (stereo not given) | -2.31
55 | COc1ccc(C(NC(=O)c2cccc[n+]2[O-])C2CC2)cc1 (stereo not given) | -3.04
56 | CN(Cc1cc2ccccc2o1)S(C)(=O)=O | -1.88
57 | CCc1noc(CN(C)C2CCN(c3sccc3C#N)C2=O)n1 (stereo not given) | -2.79
58 | CN(Cc1ncnn1C)C1CCN(c2sccc2C#N)C1=O (stereo not given) | -1.7
59 | O=C(NC1(C(=O)O)CCCC1)C1Cc2cc(F)ccc2O1 (stereo not given) | 0.608
60 | CCCC(C)CS(=O)(=O)NCCc1csc(N2CCCC2)n1 (stereo not given) | -2.73
61 | c1csc(-c2noc(C3CCCOC3)n2)c1 (stereo not given) | -2.62
62 | Cc1nn(C)c(Cl)c1C1CCCN1c1ncnc2c1CCC2 (stereo not given) | 18
63 | CC(C)c1cc(C(=O)N2CCc3ccccc3C2C(=O)O)n(C)n1 (stereo not given) | -5.14
64 | CC(C)c1nc(C(=O)N2CCc3ccccc3C2C(=O)O)cs1 (stereo not given) | -2.12
65 | COC(=O)C1CCCCN1C(=O)c1ccccc1F (stereo not given) | -2.94
66 | CC(C)CN(CC(=O)O)C(=O)c1ccc(F)cc1 | 4.28
67 | Cc1cc(N2CCC(NS(C)(=O)=O)CC2)nc(C(C)C)n1 | -4.49
68 | Cc1ccc(C(=O)Nc2ccccc2N2CCCC2)n1C | 12
69 | CN(Cc1ccccc1F)C(=O)COC(=O)c1cc(Cl)c[nH]1 | 10.9

Row | Compound | cytotoxicity at 70.5 h [%]
70 | CN(Cc1ccco1)C(=O)CN1C(=O)c2cc(Cl)c(Cl)cc2C1=O | -16.6
71 | O=C(Nc1cc(C(F)(F)F)c[nH]c1=O)C1CCCO1 (stereo not given) | -7.79
72 | CC(=O)N1CCC(C(=O)NCCc2c[nH]c3cc(C)ccc23)CC1 | 16.1
73 | CC1COCCN1C(=O)COc1cccc(Oc2ccccn2)c1 (stereo not given) | -9.57
74 | NC(=O)CCN(CC(=O)NCc1ccccn1)c1ccc(F)cc1 | -9.69
75 | c1cc(CNCc2cccc3c2OCCO3)cc(Cn2cncn2)c1 | -10.5
76 | CSCC(=O)N1CCOC(c2nc(C(C)(C)C)n[nH]2)C1 (stereo not given) | -0.6
77 | N#CCCCS(=O)(=O)NC1(c2ccc(F)cc2)CC1 | -8.06
78 | CCc1nnsc1C(=O)N1CCOC(c2nc(C(C)C)n[nH]2)C1 (stereo not given) | -2.32
79 | CCc1ocnc1C(=O)N1CCOC(c2nc(C(C)C)n[nH]2)C1 (stereo not given) | -10.4
80 | O=C(Nc1ccc(F)cc1-c1nc(C2CC2)no1)N1CC[C@@H](O)C1 | -6.37
81 | COCc1noc(Cn2c(C3CC3)nc3ccccc32)n1 | 21.1
82 | CNC(=O)c1cccc(CN2CCN(c3ccncc3)CC2)c1 | 0.282
83 | CNS(=O)(=O)C1CCN(c2cc(C(C)C)nc(C(C)C)n2)C1 (stereo not given) | -6.44
84 | CC1CN(C)CCN1C(=O)COc1cccc(Oc2ccccn2)c1 (stereo not given) | 18.2
85 | c1ncn(Cc2ccc(CNCc3ccc4c(c3)OCCO4)cc2)n1 | -13.3
86 | CCN1CCCCC1C(=O)N1CCC(OC2CCCC2)CC1 (stereo not given) | 6.41
87 | Cc1ccc(CN(C)C(=O)CNC(=O)N2CCc3ccccc3C2)o1 | 17.9
88 | Cc1cccc(C(=O)N(CC(=O)O)CC(C)C)c1 | 11.7
89 | CCNC(=O)c1ccc(NC2CCOC3(CCCC3)C2)nn1 (stereo not given) | 17
90 | CN(C1CCCCC1)S(=O)(=O)NCC1Cc2ccccc2O1 (stereo not given) | -1.4
91 | CCCc1noc(C[S+]([O-])CC(=O)NCc2ccccc2)n1 (stereo not given) | 15.8
92 | Cc1c(NC(=O)CN(C)S(C)(=O)=O)cccc1OC1CCCC1 | -4

Row | Compound | cytotoxicity at 70.5 h [%]
93 | CCn1cc(S(=O)(=O)NCc2ccnc(-n3ccnc3)c2)cn1 | -6.31
94 | O=S(=O)(NCc1ccnc(-n2ccnc2)c1)c1cncc(F)c1 | -1.94
95 | Cc1cnn(Cc2cccc(OCC(N)=O)c2)c1 | -1.49
96 | Cc1nc(CN2CCc3ccc(S(N)(=O)=O)cc32)oc1C | 0.0206
97 | Cc1cnc(C(NC(=O)NCc2nc(C3CC3)no2)C2CC2)s1 (stereo not given) | -1.45
98 | CS(=O)(=O)NCC1Cc2ccccc2O1 (stereo not given) | -0.512
99 | OC(c1cnn(-c2ccccc2)c1)C(F)(F)F (stereo not given) | -1.66
100 | CC(C)c1nnc(CN2CCCc3ccc(S(N)(=O)=O)cc32)o1 | -0.377
101 | O=C(NCCN1CCOCC1)c1cc(-c2ccc(Cl)s2)[nH]n1 | -1.44
102 | Cc1noc(C)c1CC(=O)NCCN1CCN(S(C)(=O)=O)CC1 | 0.0227
103 | Cc1noc(C)c1C(=O)NCCN1CCOCC1 | 1.59
104 | O=C(CS(=O)(=O)c1ncccc1Cl)NC1CCCc2ccccc21 (stereo not given) | 12
105 | N#Cc1cnc(NC2CCN(C(=O)C3CCCCC3)CC2)c(Cl)c1 | -0.508
106 | COC(=O)c1cc(NCC(=O)NC(N)=O)cc(C(F)(F)F)c1 | 0.625
107 | CC(C)(CNC(=O)Nc1cccc(-c2nccs2)c1)C(N)=O | -0.236
108 | CC(C)(C)CC(=O)NCCn1nc(C2CCNC2)c2cccnc21 (stereo not given) | -6.02
109 | CNCC(=O)N1CCCC1c1cncc(Oc2ccc(F)cc2)n1 (stereo not given) | -2.91
110 | CNC(=O)c1cccc(C2CNCCN2C(=O)c2cccc(F)c2)c1 (stereo not given) | 25
111 | CC(=O)N1CCN(c2cc(CCN)nc(C3CC3)n2)CC1 | -1.97
112 | CC1CCN(c2cc(CCC3CCCN3)ncn2)CC1 (stereo not given) | -3.6
113 | NCC(=O)N1CCCC(c2ccnc(Nc3cnccn3)n2)C1 (stereo not given) | -7.18
114 | Cn1ccnc1CN1CCCC(Cc2ccnc3ccncc23)CC1 (stereo not given) | -5.22
115 | Cc1cc(C)nc(N2CCN(Cc3nccn3C)CC2)n1 | -2.76
